Data taken from patent EP4603105A1, “PHARMACEUTICAL COMPOSITION CONTAINING CYCLIC COMPOUND HAVING SELECTIVE KRAS INHIBITORY EFFECT AGAINST HRAS AND NRAS” (CHUGAI SEIYAKU KABUSHIKI KAISHA, priority 2022, dated 2024).
pIC50, pKd: −log10 of the molar value.

Assays:
[1] = biological target: GDP-bound KRAS wild-type protein (Homo sapiens, UniProt P01116); assay: Binding to KRAS by surface plasmon resonance (SPR), dissociation constant KD; settings: Single Cycle Kinetics
In short: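 Affinity is measured by surface plasmon resonance at 30°C against captured, GDP-loaded RAS carrying a biotinylated Avi tag. Compounds are titrated by single-cycle kinetics, and KD comes from a 1:1 fit.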

[2] = biological target: GDP-bound NRAS wild-type protein (Homo sapiens, UniProt P01111); assay: Binding to NRAS by surface plasmon resonance (SPR), KD and KD ratio to KRAS; settings: ratio of KD for GDP-bound NRAS wild-type protein to KD for KRAS
GDP-bound NRAS wild-type protein, sequence (P01111 whole entry): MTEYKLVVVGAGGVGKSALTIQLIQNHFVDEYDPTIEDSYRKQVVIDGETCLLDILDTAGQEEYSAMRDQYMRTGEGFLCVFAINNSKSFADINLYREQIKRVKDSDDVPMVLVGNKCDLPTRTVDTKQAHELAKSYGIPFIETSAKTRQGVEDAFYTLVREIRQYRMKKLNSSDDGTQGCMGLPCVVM
In short: (§1)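 Each cycle, GDP-bound biotin-Avi RAS was captured (~100–300 RU), compound concentrations were injected low to high for 75 s each at 100 µL/min, then the chip was regenerated. Buffer: HBS pH 7.4, 10 mM MgCl2, 10 µM GDP, 1 mM DTT, 4% DMSO; 30°C. KD from a 1:1 binding model.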

[3] = biological target: HRAS wild-type protein (Homo sapiens, UniProt P01112); assay: Binding to HRAS by surface plasmon resonance (SPR), KD and KD ratio to KRAS; settings: ratio of KD for HRAS wild-type protein to KD for KRAS
HRAS wild-type protein, sequence (P01112 whole entry): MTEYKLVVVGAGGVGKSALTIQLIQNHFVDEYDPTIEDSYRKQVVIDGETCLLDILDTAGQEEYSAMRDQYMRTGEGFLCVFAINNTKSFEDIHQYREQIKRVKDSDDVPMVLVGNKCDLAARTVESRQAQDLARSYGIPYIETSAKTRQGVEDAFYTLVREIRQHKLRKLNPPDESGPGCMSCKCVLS
In short: as §1

[4] = system: human lung cancer strain NCI-H441; assay: NCI-H441 cell proliferation inhibitory activity (CellTiter-Glo, 4 days); type: cell-based; settings: NCI-H441 cells, 4 days, read-out: NCl-H441 IC50
In short: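 Signal came from […] measured per well once the reagent was added. Beforehand, cells were cultured at 37°C and 5% carbon dioxide on a compound series serially diluted in dimethyl sulfoxide.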

GDP-bound KRAS wild-type protein, sequence (P01116 1-188 isoform P01116-2): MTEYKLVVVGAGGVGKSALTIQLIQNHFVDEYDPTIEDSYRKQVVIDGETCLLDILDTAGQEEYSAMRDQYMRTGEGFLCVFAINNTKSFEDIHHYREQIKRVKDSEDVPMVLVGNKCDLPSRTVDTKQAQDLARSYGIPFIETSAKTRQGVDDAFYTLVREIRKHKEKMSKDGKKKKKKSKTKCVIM

SMILES	pKd [1]	pIC50 [4]	NRAS /KRAS [2]	HRAS /KRAS [3]
CCC[C@H]1C(=O)N[C@@H]([C@@H](C)CC)C(=O)N(C)CC(=O)N(C)[C@H]2C/C=C\CCN(C2=O)[C@@H](Cc2ccc(C)cc2)C(=O)N(C)CC(=O)N[C@@H](CCc2ccc(C(F)(F)F)c(OC)c2)C(=O)N2CC3(CC3)C[C@H]2C(=O)N(C)C2(CCC2)C(=O)N(C)[C@@H](C(CC)CC)C(=O)N(C)[C@H](C(=O)N(C)C)CC(=O)N1C [PP3292]	9.89	8.27	A (a compound having 10 or more and less than 20 is denoted as A)	A (a compound having 10 or more and less than 20 is denoted as A)
CCC[C@H]1C(=O)N[C@@H]([C@@H](C)CC)C(=O)N(C)CC(=O)N(C)[C@H]2C/C=C\CCN(C2=O)[C@@H](Cc2ccc(C)cc2)C(=O)N(C)CC(=O)N[C@@H](CCc2ccc(C(F)(F)F)c(OC)c2)C(=O)N2CC3(CC3)C[C@H]2C(=O)N(C)C2(CCC2)C(=O)N(C)[C@@H](CC(C)(C)C)C(=O)N(C)[C@H](C(=O)N(C)C)CC(=O)N1C [PP3296]	10.10	8.85	B (a compound having 3 or more and less than 10 is denoted as B)	C (A compound having a KD ratio of 0.1 or more and less than 3 is denoted as C)
CCC[C@H]1C(=O)N[C@@H]([C@@H](C)CC)C(=O)N(C)CC(=O)N(C)[C@H]2C/C=C\CCN(C2=O)[C@@H](Cc2ccc(C)cc2)C(=O)N(C)CC(=O)N[C@@H](CCc2ccc(C(F)(F)F)c(Cl)c2)C(=O)N2CC3(CC3)C[C@H]2C(=O)N(C)C2(CCC2)C(=O)N(C)[C@@H](C2CCCC2)C(=O)N(C)[C@H](C(=O)N(C)C)CC(=O)N1C [PP3298]	9.47	8.47	B (a compound having 3 or more and less than 10 is denoted as B)	B (a compound having 3 or more and less than 10 is denoted as B)
CCC[C@H]1C(=O)N[C@@H]([C@@H](C)CC)C(=O)N(C)CC(=O)N(C)[C@H]2C/C=C\CCN(C2=O)[C@@H](Cc2ccc(C)cc2)C(=O)N(C)CC(=O)N[C@@H](CCc2ccc(C(F)(F)F)c(Cl)c2)C(=O)N2CC3(CC3)C[C@H]2C(=O)N(C)C2(CCC2)C(=O)N(C)[C@@H](C(CC)CC)C(=O)N(C)[C@H](C(=O)N(C)C)CC(=O)N1C [PP3300]	9.89	7.95	A (a compound having 10 or more and less than 20 is denoted as A)	B (a compound having 3 or more and less than 10 is denoted as B)
CCC[C@H]1C(=O)N[C@@H](C2CCCC2)C(=O)N(C)CC(=O)N(C)[C@H]2C/C=C\CCN(C2=O)[C@@H](Cc2ccc(C)cc2)C(=O)N(C)CC(=O)N[C@@H](CCc2cc(F)c(C(F)(F)F)c(F)c2)C(=O)N2CC3(CC3)C[C@H]2C(=O)N(C)C2(CCC2)C(=O)N(C)[C@@H](C2CCCC2)C(=O)N(C)[C@H](C(=O)N(C)C)CC(=O)N1C [PP3306]	10.28	8.03	A (a compound having 10 or more and less than 20 is denoted as A)	B (a compound having 3 or more and less than 10 is denoted as B)
CCC[C@H]1C(=O)N[C@@H](C2CCCC2)C(=O)N(C)CC(=O)N(C)[C@H]2C/C=C\CCN(C2=O)[C@@H](Cc2ccc(C(F)(F)F)cc2)C(=O)N(C)CC(=O)N[C@@H](CCc2cc(F)c(C(F)(F)F)c(F)c2)C(=O)N2CC3(CC3)C[C@H]2C(=O)N(C)C2(CCC2)C(=O)N(C)[C@@H]([C@@H](C)CC)C(=O)N(C)[C@H](C(=O)N(C)C)CC(=O)N1C [PP3307]	8.62	7.60	AA (a compound having 20 or more is denoted as AA)	A (a compound having 10 or more and less than 20 is denoted as A)
CCC[C@H]1C(=O)N[C@@H](C2CCCC2)C(=O)N(C)CC(=O)N(C)[C@H]2C/C=C\CCN(C2=O)[C@@H](Cc2ccc(C)cc2)C(=O)N(C)CC(=O)N[C@@H](CCc2cc(F)c(C(F)(F)F)c(F)c2)C(=O)N2CC3(CC3)C[C@H]2C(=O)N(C)C2(CCC2)C(=O)N(C)[C@@H](C(CC)CC)C(=O)N(C)[C@H](C(=O)N(C)C)CC(=O)N1C [PP3308]	9.74	7.76	A (a compound having 10 or more and less than 20 is denoted as A)	B (a compound having 3 or more and less than 10 is denoted as B)
CCC[C@H]1C(=O)N[C@@H](C2CCCC2)C(=O)N(C)CC(=O)N(C)[C@H]2C/C=C\CCN(C2=O)[C@@H](Cc2ccc(C)cc2)C(=O)N(C)CC(=O)N[C@@H](CCc2ccc(C(F)(F)F)c(OC)c2)C(=O)N2CC3(CC3)C[C@H]2C(=O)N(C)C2(CCC2)C(=O)N(C)[C@@H](C(CC)CC)C(=O)N(C)[C@H](C(=O)N(C)C)CC(=O)N1C [PP3316]	9.77	7.95	A (a compound having 10 or more and less than 20 is denoted as A)	B (a compound having 3 or more and less than 10 is denoted as B)

Now from value to compound, other results behind:

pKd [1]	pIC50 [4]	SMILES	NRAS /KRAS [2]	HRAS /KRAS [3]
10.00	8.47	CCC[C@H]1C(=O)N[C@@H]([C@@H](C)CC)C(=O)N(C)CC(=O)N(C)[C@H]2C/C=C\CCN(C2=O)[C@@H](Cc2ccc(C)cc2)C(=O)N(C)CC(=O)N[C@@H](CCc2ccc(C(F)(F)F)c(OC)c2)C(=O)N2CC3(CC3)C[C@H]2C(=O)N(C)C2(CCC2)C(=O)N(C)[C@@H]([C@@H](C)CC)C(=O)N(C)[C@H](C(=O)N(C)C)CC(=O)N1C [PP3294]	A (a compound having 10 or more and less than 20 is denoted as A)	A (a compound having 10 or more and less than 20 is denoted as A)
9.32	7.99	CCC[C@H]1C(=O)N[C@@H]([C@@H](C)CC)C(=O)N(C)CC(=O)N(C)[C@H]2C/C=C\CCN(C2=O)[C@@H](Cc2ccc(C(F)(F)F)cc2)C(=O)N(C)CC(=O)N[C@@H](CCc2ccc(C(F)(F)F)c(Cl)c2)C(=O)N2CC3(CC3)C[C@H]2C(=O)N(C)C2(CCC2)C(=O)N(C)[C@@H](C(CC)CC)C(=O)N(C)[C@H](C(=O)N(C)C)CC(=O)N1C [PP3297]	A (a compound having 10 or more and less than 20 is denoted as A)	B (a compound having 3 or more and less than 10 is denoted as B)
9.96	8.09	CCC[C@H]1C(=O)N[C@@H]([C@@H](C)CC)C(=O)N(C)CC(=O)N(C)[C@H]2C/C=C\CCN(C2=O)[C@@H](Cc2ccc(C(F)(F)F)cc2)C(=O)N(C)CC(=O)N[C@@H](CCc2ccc(C(F)(F)F)c(Cl)c2)C(=O)N2CC3(CC3)C[C@H]2C(=O)N(C)C2(CCC2)C(=O)N(C)[C@@H]([C@@H](C)CC)C(=O)N(C)[C@H](C(=O)N(C)C)CC(=O)N1C [PP3299]	A (a compound having 10 or more and less than 20 is denoted as A)	A (a compound having 10 or more and less than 20 is denoted as A)
10.09	8.05	CCC[C@H]1C(=O)N[C@@H]([C@@H](C)CC)C(=O)N(C)CC(=O)N(C)[C@H]2C/C=C\CCN(C2=O)[C@@H](Cc2ccc(C)cc2)C(=O)N(C)CC(=O)N[C@@H](CCc2ccc(C(F)(F)F)c(Cl)c2)C(=O)N2CC3(CC3)C[C@H]2C(=O)N(C)C2(CCC2)C(=O)N(C)[C@@H]([C@@H](C)CC)C(=O)N(C)[C@H](C(=O)N(C)C)CC(=O)N1C [PP3302]	A (a compound having 10 or more and less than 20 is denoted as A)	A (a compound having 10 or more and less than 20 is denoted as A)
9.17	7.69	CCC[C@H]1C(=O)N[C@@H](C2CCCC2)C(=O)N(C)CC(=O)N(C)[C@H]2C/C=C\CCN(C2=O)[C@@H](Cc2ccc(C(F)(F)F)cc2)C(=O)N(C)CC(=O)N[C@@H](CCc2cc(F)c(C(F)(F)F)c(F)c2)C(=O)N2CC3(CC3)C[C@H]2C(=O)N(C)C2(CCC2)C(=O)N(C)[C@@H](C(CC)CC)C(=O)N(C)[C@H](C(=O)N(C)C)CC(=O)N1C [PP3305]	AA (a compound having 20 or more is denoted as AA)	A (a compound having 10 or more and less than 20 is denoted as A)
9.04	8.14	CCC[C@H]1C(=O)N[C@@H](C2CCCC2)C(=O)N(C)CC(=O)N(C)[C@H]2C/C=C\CCN(C2=O)[C@@H](Cc2ccc(C(F)(F)F)cc2)C(=O)N(C)CC(=O)N[C@@H](CCc2ccc(C(F)(F)F)c(OC)c2)C(=O)N2CC3(CC3)C[C@H]2C(=O)N(C)C2(CCC2)C(=O)N(C)[C@@H]([C@@H](C)CC)C(=O)N(C)[C@H](C(=O)N(C)C)CC(=O)N1C [PP3315]	A (a compound having 10 or more and less than 20 is denoted as A)	A (a compound having 10 or more and less than 20 is denoted as A)
